Experimental findings from patent publication US7279321B2, “Methods for increasing the resistance of a host cell to aromatic carboxylic acids” (priority 2003, dated 2007) are described below.

≈ marks a conversion by molar mass, not a printed value.

Series [1] deals with E. coli DPD2444 (yhcP−). Put plainly: microbe, parasite or virus in culture. Type of series: cell-based. Here is the method: (§1) Additional compounds were tested for growth inhibition of E. coli MG1655 (yhcP^+) and DPD2444 (yhcP^−) in Vogel-Bonner medium with glucose as the carbon source and with 0.01% tetrazolium violet added as an indicator of viability. A series of two-fold dilutions of each chemical was made to the wells of a clear 96-well microplate in 50 μl volume. To these wells was added 50 μl of an overnight culture in Vogel Bonner medium with glucose as a carbon source of either MG1655 or DPD2444 that had been previously diluted 500-fold into fresh medium. The plates were incubated at 37° C. without shaking for 16 to 18 hours. The purple color in each well was visually scored. A score of 4+ indicated full purple color equivalent to a no chemical control well. Scores of 3+, 2+, or 1+ indicated decreasing amounts of purple color. A score of − indicated the complete absence of color. The MIC was defined as the lowest tested concentration that gave complete absence of color. The rank of difference between strains was defined as the score of pigment color for E. coli MG1655 in wells containing the concentration of a given chemical at the MIC for DPD24444. When MG1655 had no color, the score was 0. When MG 1655 was scored at 1+, the score was 1, when scored at 2+, the score was 2, etc.

The test system of series [2] is E. coli MG1655 (yhcP+). The series is described as follows: microbe, parasite or virus in culture. Type of series: cell-based. Here is the method:
as §1

Regarding `O=C(O)c1ccc(O)cc1` [pHBA, para-hydroxybenzoic acid], the MIC in series [1] (Escherichia coli, read-out: MIC, DPD2444 (yhcP−)) was 12.5 mM (≈ 1730 µg/mL); in series [2] (Escherichia coli, MG1655, read-out: MIC, MG1655 (yhcP+)), 100 mM (≈ 13800 µg/mL). Moreover, in series [1] (MIC difference at least 2-fold and rank at least 2), the “defined as substrate of the YhcP efflux pump by this genetic test” value is “substrates of the YhcP efflux pump”. Moreover, the “Rank Diff” value in series [2] (score of pigment color for MG1655 at the MIC for DPD2444 (0 = no color, 4 = full purple color)) came out at 4.
